Test results: patent US20250144067A1, “PERSONALIZED STARVATION THERAPY FOR CANCER” (Faeth Therapeutics, Inc., priority 2021, published 2025)
Structures can show the parent of a compound that is named as a salt.

Tests used:
[1] = system: NCI-H292 lung cancer cells; test: FDA drug screening, complete media vs cholesterol-free media with simvastatin (TABLE 2); format: cell-based, human; settings: for Cholesterol-free media + simvastatin (0.04 μM) / Complete Media: NCI-H292 cells; for Difference: >0 enhanced anti-cancer activity, about 0 neutral, <0 antagonist
[2] = system: NCI-H292 lung cancer cells; test: FDA drug screening, complete media vs cholesterol-free media without statin (TABLE 1); format: cell-based, human; settings: for Difference: about 0 neutral
[3] = FDA drug library screen, cholesterol-free media with simvastatin 0.04 μM
[4] = FDA drug library screen, complete media
[5] = complete media vs cholesterol-free media + simvastatin (0.04 μM)
[6] = cholesterol-free media with simvastatin 0.04 μM, FDA drug library screen (TABLE 2)
[7] = complete media, FDA drug library screen (TABLE 2)
[8] = complete media minus cholesterol-free media + simvastatin (0.04 μM)
[9] = NCI-H292 cells, cholesterol-free media without statin
[10] = Complete minus Cholesterol-free, >0 enhanced anti-cancer activity, <0 antagonist
[11] = NCI-H292 cells, cholesterol-free media without statin, FDA drug library screen
[12] = NCI-H292 cells, complete media, FDA drug library screen
[13] = complete media minus cholesterol-free media + simvastatin
[14] = Complete minus Cholesterol-free, greater than 0 enhanced anti-cancer activity, below 0 antagonists
[15] = NCI-H292 cells in cholesterol-free media without statin
[16] = NCI-H292 cells in complete media
[17] = cholesterol-free media with simvastatin 0.04 μM, cell growth value in FDA drug screen
[18] = complete media, cell growth value in FDA drug screen
[19] = complete vs cholesterol-free media, >0 enhanced anti-cancer activity, <0 antagonist
[20] = drug in cholesterol-free media with simvastatin 0.04 μM

Compound: C[C@@H]1C/C=C/C=C/C=C/C=C/[C@H](O[C@@H]2O[C@H](C)[C@@H](O)[C@H](N)[C@@H]2O)C[C@@H]2O[C@](O)(C[C@@H](O)C[C@H]3O[C@@H]3/C=C/C(=O)O1)C[C@H](O)[C@H]2C(=O)O [Natamycin]
- Cholesterol-free media + simvastatin (0.04 μM) [1, 3]: 1.218
- Complete Media [1, 4]: 1.127
- Difference [1, 5]: −0.09
- Difference ([2]; Complete minus Cholesterol-free, greater than 0 enhanced anti-cancer activity, below 0 antagonist): −0.07
- Cholesterol-free ([2]; NCI-H292 cells, FDA drug library screen, cholesterol-free media without statin): 1.061
- Complete ([2]; NCI-H292 cells, FDA drug library screen, complete media): 0.9893

Compound: C#C[C@]1(O)CC[C@H]2[C@@H]3CCc4cc(OC5CCCC5)ccc4[C@H]3CC[C@@]21C [Quinestrol]
- Cholesterol-free media + simvastatin (0.04 μM) [1, 6]: 0.01915
- Complete Media [1, 7]: 0.02153
- Difference [1, 8]: 0.00
- Cholesterol-free [2, 9]: 1.478
- Complete ([2]; NCI-H292 cells, complete media): 1.012
- Difference ([2]; complete vs cholesterol-free media, greater than 0 enhanced anti-cancer activity, below 0 antagonists): −0.47

Compound: O=C(O)/C=C/c1ccc(Cn2ccnc2)cc1 [Ozagrel (sodium)]
- Cholesterol-free media + simvastatin (0.04 μM) [1, 6]: 1.082
- Complete Media [1, 7]: 1.026
- Difference [1, 8]: −0.06
- Difference [2, 10]: −0.07
- Cholesterol-free [2, 11]: 1.134
- Complete [2, 12]: 1.068

Compound: N#C/C(=C1/SC[C@@H](c2ccc(Cl)cc2Cl)S1)n1ccnc1 [Luliconazole]
- Cholesterol-free media + simvastatin (0.04 μM) [1, 3]: 0.3531
- Complete Media [1, 4]: 0.8464
- Difference [1, 13]: 0.49
- Difference [2, 14]: −0.58
- Cholesterol-free [2, 15]: 1.532
- Complete [2, 16]: 0.9562

Compound: COc1nc2ccc(Br)cc2cc1[C@@H](c1ccccc1)[C@@](O)(CCN(C)C)c1cccc2ccccc12 [Bedaquiline]
- Cholesterol-free media + simvastatin (0.04 μM) [1, 17]: 1.492
- Complete Media [1, 18]: 1.59
- Difference [1, 13]: 0.10
- Cholesterol-free [2, 11]: 0.6087
- Complete [2, 12]: 1.472
- Difference [2, 19]: 0.86

Compound: O[C@H]1[C@H](O)[C@@H](O)[C@H](O)[C@@H](O)[C@H]1O [i-Inositol]
- Cholesterol-free media + simvastatin (0.04 μM) [1, 6]: 0.9949
- Complete Media [1, 7]: 0.9333
- Difference [1, 8]: −0.06
- Difference [2, 10]: −0.01
- Cholesterol-free [2, 11]: 1.553
- Complete [2, 12]: 1.54

Compound: COc1cc(OC)cc(N(CCNC(C)C)c2ccc3ncc(-c4cnn(C)c4)nc3c2)c1 [Erdafitinib]
- Cholesterol-free media + simvastatin (0.04 μM) [1, 17]: 0.8898
- Complete Media [1, 18]: 0.9602
- Difference [1, 13]: 0.07
- Cholesterol-free [2, 11]: 0.8277
- Complete [2, 12]: 1.177
- Difference [2, 19]: 0.35

Compound: C[C@]12CC[C@@H]3c4ccc(OS(=O)(=O)O)cc4CC[C@H]3[C@@H]1CCC2=O [Estropipate]
- Cholesterol-free media + simvastatin (0.04 μM) [1, 3]: 0.9313
- Complete Media [1, 4]: 1.077
- Difference [1, 13]: 0.15
- Difference [2, 14]: −0.48
- Cholesterol-free [2, 15]: 1.475
- Complete [2, 16]: 0.9927

Compound: COc1cc(NS(C)(=O)=O)ccc1Nc1c2ccccc2nc2ccccc12 [Amsacrine]
- Cholesterol-free media + simvastatin (0.04 μM) [1, 6]: 0.3844
- Complete Media [1, 7]: 0.346
- Difference [1, 8]: −0.04
- Difference [2, 10]: −0.20
- Cholesterol-free [2, 9]: 0.3482
- Complete ([2]; NCI-H292 cells, complete media): 0.1517

Compound: CCN(CC)C(=O)c1ccc(O)c(OC)c1 [Etamivan]
- Cholesterol-free media + simvastatin (0.04 μM) ([1]; FDA library drug in cholesterol-free media with simvastatin 0.04 μM): 1.227
- Complete Media ([1]; FDA library drug in complete media): 0.9141
- Difference [1, 5]: −0.31
- Difference [2, 14]: −0.50
- Cholesterol-free [2, 15]: 1.483
- Complete [2, 16]: 0.9848

Compound: COC(=O)Nc1nc2cc(C(=O)c3ccc(F)cc3)ccc2[nH]1 [Flubendazole]
- Cholesterol-free media + simvastatin (0.04 μM) [1, 6]: 1.122
- Complete Media [1, 7]: 1.079
- Difference [1, 8]: −0.04
- Cholesterol-free [2, 11]: 0.549
- Complete [2, 12]: 1.107
- Difference [2, 19]: 0.56

Compound: CN1CCN(CC(=O)N2c3ccccc3C(=O)Nc3cccnc32)CC1 [Pirenzepine (dihydrochloride)]
- Cholesterol-free media + simvastatin (0.04 μM) [1, 6]: 1.293
- Complete Media [1, 7]: 1.265
- Difference [1, 8]: −0.03
- Cholesterol-free [2, 11]: 1.465
- Complete [2, 12]: 1.606
- Difference [2, 19]: 0.14

Compound: CC(C)(C)C(=O)OCOP(=O)(COCCn1cnc2c(N)ncnc21)OCOC(=O)C(C)(C)C [Adefovir dipivoxil]
- Cholesterol-free media + simvastatin (0.04 μM) [1, 6]: 0.2485
- Complete Media [1, 7]: 0.1986
- Difference [1, 8]: −0.05
- Difference [2, 10]: −0.04
- Cholesterol-free [2, 11]: 0.1811
- Complete [2, 12]: 0.1375

Compound: COc1ccc(C(=O)c2ccccc2)c(O)c1 [Oxybenzone]
- Cholesterol-free media + simvastatin (0.04 μM) [1, 20]: 1.175
- Complete Media ([1]; drug in complete media): 0.918
- Difference [1, 5]: −0.26
- Difference [2, 10]: −0.29
- Cholesterol-free [2, 9]: 1.383
- Complete ([2]; NCI-H292 cells, complete media): 1.094

Compound: Penbutolol (sulfate)
- Cholesterol-free media + simvastatin (0.04 μM) [1, 20]: 0.9562
- Complete Media ([1]; drug in complete media): 0.7448
- Difference [1, 5]: −0.21
- Difference [2, 14]: −0.71
- Complete [2, 16]: 1.219
